# Columns and labels:
# Format in all cases: in vivo, rat
# [1] = test system: rats with nonalcoholic steatohepatitis induced by a high-fat diet and CCl4; experiment: Four indices of serum hepatic fibrosis, high-fat diet and CCl4 model; details: positive control group
# Experimental: (§1) Starting from the seventh week, they received subcutaneous injections of a 30% CCl4 olive oil solution at a dosage of 0.2 ml/100 g behind their back twice per week for a total of four times. Once the model was successfully replicated, the corresponding drugs were administered orally (10 ml/kg) in each treatment group, and both the normal control group and the model group received equal volumes of a 0.5% CMC-Na solution once daily for ten consecutive weeks. Throughout the experimental period, the rats were provided with ad libitum access to food and water, while the animal chamber was maintained under controlled conditions of quietness, natural lighting, a temperature of 25±0.5° C., and a humidity level of 55±5%. The rats' body weights were measured once per week and recorded.
# (§2) At the end of the tenth week of administration, all rats underwent a 16-hour fasting period following their final administration and were intraperitoneally injected with a 20% ulinastatin solution (10 ml/kg) for anesthesia. Subsequently, blood samples were collected from the abdominal aorta and allowed to stand for one hour, and then centrifuged at 4° C. for fifteen minutes at a speed of 3000 r/min. Finally, the upper serum was stored at −80° C. Following the instructions provided with the biochemical index detection kit, levels of HDL-C, LDL-C, NEFA, AST, ALT, UA, TC, TG, PCIII, IV-C LN and HA in rat serum were determined.
# [2] = test system: rats with nonalcoholic steatohepatitis induced by a high-fat diet and CCl4; experiment: Liver histopathology (HE, oil red, Masson staining), high-fat diet and CCl4 model; details: positive control groups and NR218 high-, medium-, low-dose groups
# Experimental: as §1, with “The normal control group were fed a standard diet while the other groups were exclusively fed a high-fat diet consisting of 88% basal diet +10% lard +2% cholesterol for the initial six weeks. Starting” for “Starting”
# After collecting blood samples from the abdominal aorta of rats, the liver tissue was isolated and fixed in a 10% neutral formalin solution. Following standard procedures for embedding, sectioning, dewaxing, staining, clearing, and sealing, the liver tissues were subjected to HE (hematoxylin-eosin), Masson's trichrome, and oil red staining techniques respectively. […]
# [3] = test system: rats with nonalcoholic steatohepatitis induced by a high-fat diet and CCl4; experiment: Serum biochemical indices, high-fat diet and CCl4 model; details: end of tenth week of administration, positive control group; for HOMA-IR: FPG x FINS/22.5
# Experimental: as §1, §2
# According to the kit instructions, the concentration of fasting plasma glucose (FPG) in serum was determined using colorimetry, while the concentration of fasting insulin (FINS) in serum was measured through radioimmunoassay.
# [4] = test system: rats with nonalcoholic steatohepatitis induced by a high-fat diet and CCl4; experiment: Liver indices, non-alcoholic steatohepatitis model induced by high-fat diet and CCl4; details: positive control group
# Experimental: as §1, with “The normal control group were fed a standard diet while the other groups were exclusively fed a high-fat diet consisting of 88% basal diet +10% lard +2% cholesterol for the initial six weeks. Starting” for “Starting”
# After blood sampling from the abdominal aorta of rats, the liver tissue was isolated, rinsed with normal saline solution, dried using filter paper, weighed accurately, and subsequently calculated the Liver indices: Liver indices=wet liver weight/body weight×100%.
# [5] = test system: rats with non-alcoholic steatohepatitis induced by high-fat diet; experiment: Liver indices, non-alcoholic steatohepatitis model induced by high-fat diet; details: for Liver Indices: high-fat diet model, positive control group
# Experimental: (§3) The normal control group was fed a standard diet for twelve weeks while the other groups were fed a high-fat diet consisting of 88% basal diet+10% lard+2% cholesterol for twelve weeks. After establishing the model, the drug groups received their respective treatments at a dosage of 10 ml/kg while the normal and model groups received an equal volume of 0.5% CMC-Na solution. The rats were provided with ad libitum access to water and food, while the animal chamber was maintained under controlled conditions of quietness, natural lighting, a temperature of 25±0.5° C., and a humidity level of 55±5%. The rats' body weights were measured once per week and recorded.
# (3) Liver indices was determined by dividing the wet weight of the liver by the body weight of rats and multiplying by 100%, after liver tissue was isolated, washed with normal saline, dried using filter paper, and weighed following blood sampling from the abdominal aorta. (4) HE staining and oil red staining were performed on liver tissue samples obtained from the abdominal aorta of rats. The tissue was fixed in 10% neutral formalin, followed by embedding, slicing, dewaxing, staining, transparency treatment, and sealing using routine procedures. Microscopic examination was conducted to observe the pathological changes in rat liver tissues across different groups. Additionally, the NASH-CRN scoring system was employed to assess NAS scores. (5) Detection of Proteins Associated with Non-Alcoholic Steatohepatitis
# [6] = Body weight of rats, high-fat diet + CCl4 non-alcoholic steatohepatitis model; details: positive control group, in g (unit assumed)
# Experimental: as §1, with “The normal control group were fed a standard diet while the other groups were exclusively fed a high-fat diet consisting of 88% basal diet +10% lard +2% cholesterol for the initial six weeks. Starting” for “Starting”
# The weight changes of rats in each group were compared by conducting weekly weigh-ins after the experiment.
# [7] = Body weight of rats, high-fat diet non-alcoholic steatohepatitis model; details: positive control group, in g (unit assumed)
# Experimental: as §3
# The rats were weighed weekly to monitor the fluctuations in body weight within each experimental group.
structure (smiles),measurement,setting,value
CC[C@H](C)C(=O)O[C@H]1C[C@@H](C)C=C2C=C[C@H](C)[C@H](CC[C@@H]3C[C@@H](O)CC(=O)O3)[C@H]21 [Lovastatin],IV-C,[1],15.59 ± 7.47 µg/L
same,PC-III,[1],10.52 ± 2.34 µg/L
same,Oil red O staining of liver tissue (in words),[2],significantly ameliorated steatosis severity and reduced lipid droplet content
same,HOMA-IR,[3],5.50
same,ALT,[3]; serum,43.66 U/L
same,AST,[3]; serum,69.18 U/L
same,HDL-C,[3]; serum,1.31 mmol/L
same,LDL-C,[3]; serum,1.20 mmol/L
same,NEFA,[3]; serum,0.76 mmol/L
same,Liver Indices,[4],3.56 ± 0.49%
same,liver indices versus model group (in words),"[5]; NR218 at high, medium and low doses, P<0.01 or P<0.05",significant decrease compared to the model group
same,Liver Indices,[5],3.23 ± 0.56 %
same,body weight,[6]; week 1,195.70 ± 6.24
same,body weight,[6]; week 2,253.01 ± 9.37
same,body weight,[6]; week 3,315.37 ± 15.71
same,body weight,[6]; week 4,368.78 ± 19.25
same,body weight,[6]; week 5,409.85 ± 24.64
same,body weight,[6]; week 6,439.81 ± 28.73
same,body weight,[6]; week 7,470.75 ± 34.51
same,body weight,[6]; week 8,491.21 ± 35.35
same,body weight,[6]; week 9,491.46 ± 34.37
same,body weight,[6]; week 10,503.05 ± 37.51
same,body weight,[6]; week 11,486.62 ± 44.00
same,body weight,[6]; week 12,506.22 ± 46.50
same,body weight,[6]; week 13,530.00 ± 54.43
same,body weight,[6]; week 14,531.16 ± 48.26
same,body weight,[6]; week 15,525.60 ± 53.49
same,body weight,[6]; week 16,539.63 ± 46.78
same,body weight,[6]; week 17,555.78 ± 49.24
same,body weight,[6]; week 18,561.12 ± 51.49
same,body weight,[7]; week 0 (pre-administration),196.21 ± 4.57
same,body weight,[7]; week 1 (pre-administration),258.64 ± 9.56
same,body weight,[7]; week 2 (pre-administration),315.91 ± 19.58
same,body weight,[7]; week 3 (pre-administration),356.16 ± 26.94
same,body weight,[7]; week 4 (pre-administration),392.60 ± 32.93
same,body weight,[7]; week 5 (pre-administration),432.81 ± 38.14
same,body weight,[7]; week 6 (pre-administration),464.35 ± 45.01
same,body weight,[7]; week 7 (pre-administration),482.88 ± 44.36
same,body weight,[7]; week 8 (pre-administration),503.37 ± 45.95
same,body weight,[7]; week 9 (pre-administration),530.26 ± 48.68
same,body weight,[7]; week 10 (pre-administration),548.47 ± 45.65
same,body weight,[7]; week 11 (pre-administration),547.23 ± 54.49
same,body weight,[7]; week 12 (pre-administration),543.06 ± 66.86
same,body weight,[7]; week 13,534.63 ± 62.63
same,body weight,[7]; week 14,542.19 ± 52.03
same,body weight,[7]; week 15,543.36 ± 47.44
same,body weight,[7]; week 16,547.25 ± 37.26
same,body weight,[7]; week 17,561.64 ± 53.62
same,body weight,[7]; week 18,593.39 ± 48.55
same,body weight,[7]; week 19,615.74 ± 52.23
same,body weight,[7]; week 20,600.22 ± 50.84
"CC[C@H]1[C@@H](O)[C@@H]2[C@H](CC[C@]3(C)[C@@H]([C@H](C)CCC(=O)O)CC[C@@H]23)[C@@]2(C)CC[C@@H](O)C[C@@H]12 [Ocaliva, Obercholic acid]",HA,[1],50.19 ± 17.94 µg/L
same,IV-C,[1],15.40 ± 7.08 µg/L
same,LN,[1],118.43 ± 39.88 µg/L
same,PC-III,[1],10.82 ± 1.64 µg/L
same,HOMA-IR,[3],4.90
same,ALT,[3]; serum,54.91 U/L
same,AST,[3]; serum,62.32 U/L
same,HDL-C,[3]; serum,1.30 mmol/L
same,LDL-C,[3]; serum,1.29 mmol/L
same,NEFA,[3]; serum,0.69 mmol/L
same,TC,[3]; serum,1.76 mmol/L
same,TG,[3]; serum,0.50 mmol/L
same,UA,[3]; serum,106 µmol/L
same,Liver Indices,[4],3.57 ± 0.31%
same,Liver Indices,[5],2.95 ± 0.68 %
same,body weight,[6]; week 1,192.12 ± 5.16
same,body weight,[6]; week 2,251.85 ± 11.78
same,body weight,[6]; week 3,316.12 ± 16.31
same,body weight,[6]; week 4,359.50 ± 15.40
same,body weight,[6]; week 5,389.95 ± 30.78
same,body weight,[6]; week 6,432.14 ± 23.79
same,body weight,[6]; week 7,462.23 ± 28.00
same,body weight,[6]; week 8,487.97 ± 30.51
same,body weight,[6]; week 9,487.63 ± 39.07
same,body weight,[6]; week 10,505.41 ± 41.23
same,body weight,[6]; week 11,493.66 ± 55.42
same,body weight,[6]; week 12,509.99 ± 49.38
same,body weight,[6]; week 13,532.39 ± 48.08
same,body weight,[6]; week 14,532.75 ± 52.06
same,body weight,[6]; week 15,498.86 ± 46.37
same,body weight,[6]; week 16,493.95 ± 43.25
same,body weight,[6]; week 17,515.43 ± 41.21
same,body weight,[6]; week 18,525.15 ± 42.35
same,body weight,[7]; week 0 (pre-administration),197.61 ± 4.50
same,body weight,[7]; week 1 (pre-administration),257.27 ± 10.59
same,body weight,[7]; week 2 (pre-administration),318.89 ± 11.61
same,body weight,[7]; week 3 (pre-administration),362.58 ± 18.50
same,body weight,[7]; week 4 (pre-administration),403.03 ± 23.75
same,body weight,[7]; week 5 (pre-administration),439.43 ± 29.45
same,body weight,[7]; week 6 (pre-administration),474.15 ± 35.23
same,body weight,[7]; week 7 (pre-administration),492.08 ± 37.59
same,body weight,[7]; week 8 (pre-administration),520.77 ± 41.63
same,body weight,[7]; week 9 (pre-administration),548.10 ± 47.45
same,body weight,[7]; week 10 (pre-administration),552.73 ± 51.34
same,body weight,[7]; week 11 (pre-administration),552.52 ± 56.26
same,body weight,[7]; week 12 (pre-administration),570.97 ± 53.36
same,body weight,[7]; week 13,552.25 ± 68.34
same,body weight,[7]; week 14,551.61 ± 63.47
same,body weight,[7]; week 15,559.94 ± 61.90
same,body weight,[7]; week 16,572.35 ± 60.86
same,body weight,[7]; week 17,573.51 ± 72.23
same,body weight,[7]; week 18,599.13 ± 55.71
same,body weight,[7]; week 19,615.97 ± 56.23
same,body weight,[7]; week 20,601.19 ± 60.01
